Experiments:
Format in all cases: in vivo
intragastric pressure = experiment: Increase in intragastric pressure (peripheral dopamine blockade) in conscious restrained rats; design: key: A = active; IA = inactive; details: rat
Method: Increase in intragastric pressure - peripheral dopamine blockade
Intragastric pressure changes were recorded from previously starved conscious but restrained rats using a saline filled catheter inserted into the lumen of the stomach via a permanent gastric fistula. The catheter was connected to a physiological pressure transducer and pressure changes recorded on a hot wire pen recorder. In each animal a pre-dose period of 40 minutes was allowed to obtain a measure of spontaneous activity. An index of activity was obtained by measuring the average height of pressure waves during 10 minute periods. Values for 4 such periods were obtained during assessment of spontaneous activity and for 40 minute period after administration of compound. Student's "T" test was applied to the difference in average values obtained for spontaneous and post compound activity.

vomiting response = experiment: Anti-emetic activity in the dog (apomorphine-induced vomiting); design: key to Anti-emetic: A = active; IA = inactive; details: for Anti-emetic: at 0.1 mg/kg s.c., 30 minutes before apomorphine HC1 0.1 mg/kg s.c.; for ED50: Canis lupus familiaris, sc, s.c. 30 minutes before apomorphine HC1 0.1 mg/kg s.c.
Method: Anti-emetic activity in the dog
Compounds were administered subcutaneously 30 minutes prior to administration of a standard dose of apomorphine HC1 (0.1 mg/kg subcutaneously) and the vomiting response compared to that obtained when the same animals were dosed with apomorphine HC1 and vehicle only.

Dopamine Receptor = experiment: Inhibition of apomorphine induced climbing in the mouse (central dopamine receptor blocking activity); design: key to CNS (Climbing): A = active; IA = inactive; details: apomorphine 1mg/kg s.c.

Molecule | IG Pressure (Basal) (intragastric pressure; at 1.0 mg/kg s.c.) | Anti-emetic (vomiting response) | ED50 (vomiting response) | CNS (Climbing) ED50 (Dopamine Receptor) | CNS (Climbing) (Dopamine Receptor; at 10 mg/kg s.c.) | IG Pressure (Basal) (intragastric pressure; at 5.0 mg/kg s.c.) | CNS (Climbing) (Dopamine Receptor; at 50 mg/kg s.c.)
5-hlethanesu-lphonylamido-2-rnethoxy-3-methyl-N-[3a-[8-benzyl-8-azabicyclo(3.2.1)octyl}]benzamide [Compound 10] | A at 1.0 | A at 0.1 |  |  |  |  | 
COc1cc(NS(C)(=O)=O)c(Cl)cc1C(=O)N[C@@H]1C[C@H]2CC[C@@H](C1)N2Cc1ccccc1 [Compound 1, 4-MethanGsulphonamJdo-5-ch3oro-2-methoxy-N-[3P-(8-benzyl-8-azabicyclo{3.2.1)octyl)]benzainide] | A at 1.0 |  | 0.02 mg/kg | ED50 0.2 mg/kg s.c. |  |  | 
COc1cc(NS(C)(=O)=O)ccc1C(=O)N[C@@H]1C[C@H]2CC[C@@H](C1)N2Cc1ccccc1 [Compound 2, 4-methanesulphonamido-2-methoxy-N-[3β-(8-benzyl-8-azabicyclo(3.2.1)octyl)]benzamide] | IA at 1.0 |  | 0.1 mg/kg |  | A at 10 |  | 
COc1cc(NS(C)(=O)=O)c(S(C)(=O)=O)cc1C(=O)N[C@@H]1C[C@H]2CC[C@@H](C1)N2Cc1ccccc1 [Compound 6, 4-Methanesulphonamido-2-methoxy-5-methylsulphonyl-N-[3β-{8-benzy1-8-azabicyclo(3.2.1)octyl)]benzamide] |  | A at 0.1 |  |  |  | IA at 5.0 | IA at 50

From patent EP0101641A2, “Sulfonylamino-aza-bicyclo-alkyl derivatives” (BEECHAM GROUP PLC, priority 1982, dated 1984)
